Laboratory results from patent US7223759B2, “Antibacterial 3,5-diaminopiperidine-substituted aromatic and heteroaromatic compounds” (Anadys Pharmaceuticals, Inc., priority 2003, dated 2007).
Like-named read-outs stand apart in the source and are kept apart here.

Tested on: Escherichia coli (ATCC25922) or Staphylococcus aureus (ATCC25923)
Experiment: Antibacterial MIC, microdilution method in Mueller-Hinton medium
Assay type: cell-based
Details: Escherichia coli, 18 h, read-out: Potency (MIC)
In short: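 Read after 18 h incubation at 35° C, MIC is the lowest compound level that blocked growth. Compounds were tested in duplicate over 64–0.5 μg/ml two-fold dilutions using Mueller-Hinton microdilution per NCCLS standard.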

[1] = MIC in E. coli or S. aureus, two-fold serial dilutions 64 to 0.5 μg/ml in duplicate, 18 hours of incubation at 35° C.

MIC [1] [µg/mL]	SMILES	MIC [µg/mL]
	N[C@@H]1C[C@H](N)CN(c2nc(Nc3ccc(NC(=O)c4ccc(C(F)(F)F)nc4O)c(O)c3)nc(N3C[C@H](N)C[C@H](N)C3)n2)C1 [N-{3-hydroxy-4-[(2-hydroxy-6-trifluoromethyl-pyridine-3-carbonyl)-amino]-phenyl}-4,6-Bis-((3R,5S)-3,5-diamino-piperidin-1-yl)-[1,3,5]triazine-2-amine]	< 64
	N[C@@H]1C[C@H](N)CN(c2nc(Nc3ccc(NC(=O)c4c(O)ccc5ccccc45)c(O)c3)nc(N3C[C@H](N)C[C@H](N)C3)n2)C1 [N-{3-hydroxy-4-[(2-hydroxy-naphthalene-1-carbonyl)-amino]-phenyl}-4,6-Bis-((3R,5S)-3,5-diamino-piperidin-1-yl)-[1,3,5]triazine-2-amine]	< 16
	N[C@@H]1C[C@H](N)CN(c2nc(Nc3ccc(NC(=O)c4cccnc4O)c(O)c3)nc(N3C[C@H](N)C[C@H](N)C3)n2)C1 [N-{3-hydroxy-4-[(2-hydroxy-pyridine-3-carbonyl)-amino]-phenyl}-4,6-Bis-((3R,5S)-3,5-diamino-piperidin-1-yl)-[1,3,5]triazine-2-amine]	< 16
< 64	N[C@@H]1C[C@H](N)CN(c2nc(Nc3ccc(NC(=O)c4ccc5ccccc5c4)c(O)c3)nc(N3C[C@H](N)C[C@H](N)C3)n2)C1 [N-{3-hydroxy-4-[(naphthalene-2-carbonyl)-amino]-phenyl}-4,6-Bis-((3R,5S)-3,5-diamino-piperidin-1-yl)-[1,3,5]triazine-2-amine]	
< 64	N[C@@H]1C[C@H](N)CN(c2nc(Nc3ccc(NC(=O)c4cnc5ccccc5n4)c(O)c3)nc(N3C[C@H](N)C[C@H](N)C3)n2)C1 [N-{3-hydroxy-4-[(quinoxaline-2-carbonyl)-amino]-phenyl}-4,6-Bis-((3R,5S)-3,5-diamino-piperidin-1-yl)-[1,3,5]triazine-2-amine]	
> 64	COc1cnc(NS(=O)(=O)c2ccc(Nc3nc(N4C[C@H](N)C[C@H](N)C4)nc(N4C[C@H](N)C[C@H](N)C4)n3)cc2)nc1 [N-{4-(5-methoxy-pyrimidin-2-ylsulfamoyl)-phenyl]-4,6-Bis-((3R,5S)-3,5-diamino-piperidin-1-yl)-[1,3,5]triazine-2-amine]	
< 64	Cl.O=C(CC(O)c1ccc(Nc2nc(N3CCCCC3)nc(N3CCCCC3)n2)cc1)Nc1ccccc1C(F)(F)F [N-{4-[1-hydroxy-2-(2-trifluoromethyl-phenylcarbazmoyl)-ethyl]-phenyl}-4,6-Bis-((3R,5S)-3,5-diamino-piperidin-1-yl)-[1,3,5]triazine-2-amine]	
	N[C@@H]1C[C@H](N)CN(c2nc(Nc3ccc(C(=O)CC(=O)Nc4ccc5c(c4)OC(F)(F)O5)cc3)nc(N3C[C@H](N)C[C@H](N)C3)n2)C1 [N-{4-[2-(2,2-difluoro-benzo[1,3]dioxol-5-ylcarbamoyl)-acetyl]-phenyl}-4,6-Bis-((3R,5S)-3,5-diamino-piperidin-1-yl)-[1,3,5]triazine-2-amine]	< 16
	N[C@@H]1C[C@H](N)CN(c2nc(Nc3ccc(C(=O)CC(=O)Nc4ccc(Cl)cc4Cl)cc3)nc(N3C[C@H](N)C[C@H](N)C3)n2)C1 [N-{4-[2-(2,4-dichloro-phenylcarbamoyl)-acetyl]-phenyl}-4,6-Bis-((3R,5S)-3,5-diamino-piperidin-1-yl)-[1,3,5]triazine-2-amine]	< 64
	COc1ccc(OC)c(NC(=O)CC(=O)c2ccc(Nc3nc(N4C[C@H](N)C[C@H](N)C4)nc(N4C[C@H](N)C[C@H](N)C4)n3)cc2)c1 [N-{4-[2-(2,5-dimethoxy-phenylcarbamoyl)-acetyl]-phenyl}-4,6-Bis-((3R,5S)-3,5-diamino-piperidin-1-yl)-[1,3,5]triazine-2-amine]	< 64
	N[C@@H]1C[C@H](N)CN(c2nc(Nc3ccc(C(=O)CC(=O)Nc4cc(C(F)(F)F)ccc4Cl)cc3)nc(N3C[C@H](N)C[C@H](N)C3)n2)C1 [N-{4-[2-(2-chloro-5-trifluoromethyl-phenylcarbamoyl)-acetyl]-phenyl}-4,6-Bis-((3R,5S)-3,5-diamino-piperidin-1-yl)-[1,3,5]triazine-2-amine]	< 16
< 16	N[C@@H]1C[C@H](N)CN(c2nc(Nc3ccc(C(=O)CC(=O)Nc4ccccc4Cl)cc3)nc(N3C[C@H](N)C[C@H](N)C3)n2)C1 [N-{4-[2-(2-chloro-phenylcarbamoyl)-acetyl]-phenyl}-4,6-Bis-((3R,5S)-3,5-diamino-piperidin-1-yl)-[1,3,5]triazine-2-amine]	
	N[C@@H]1C[C@H](N)CN(c2nc(Nc3ccc(C(=O)CC(=O)Nc4ccccc4F)cc3)nc(N3C[C@H](N)C[C@H](N)C3)n2)C1 [N-{4-[2-(2-fluoro-phenylcarbamoyl)-acetyl]-phenyl}-4,6-Bis-((3R,5S)-3,5-diamino-piperidin-1-yl)-[1,3,5]triazine-2-amine]	< 64
< 16	Cl.N[C@@H]1CC(c2nc(Nc3ccc(C(=O)CC(=O)Nc4ccccc4N4CCOCC4)cc3)nc(N3C[C@H](N)C[C@H](N)C3)n2)C[C@H](N)C1 (stereo partly drawn) [N-{4-[2-(2-morpholin-4-yl-phenylcarbamoyl)-acetyl]-phenytl}-4,6-Bis-((3R,5S)-3,5-diamino-piperidin-1-yl)-[1,3,5]triazine-2-ammine]	
	N[C@@H]1C[C@H](N)CN(c2nc(Nc3ccc(C(=O)CC(=O)Nc4ccccc4C(F)(F)F)cc3)nc(N3C[C@H](N)C[C@H](N)C3)n2)C1 [N-{4-[2-(2-trifluoromethyl-phenylcarbamoyl)-acetyl]-phenyl}-4,6-Bis-((3R,5S)-3,5-diamino-piperidin-1-yl)-[1,3,5]triazine-2-amine]	< 64
> 64	COc1cc(NC(=O)CC(=O)c2ccc(Nc3nc(N4C[C@H](N)C[C@H](N)C4)nc(N4C[C@H](N)C[C@H](N)C4)n3)cc2)cc(OC)c1OC [N-{4-[2-(3,4,5-trimethoxy-phenylcarbamoyl)-acetyl]-phenyl}-4,6-Bis-((3R,5S)-3,5-diamino-piperidin-1-yl)-[1,3,5]triazine-2-amine]	
	N[C@@H]1C[C@H](N)CN(c2nc(Nc3ccc(C(=O)CC(=O)Nc4ccc(F)c(F)c4)cc3)nc(N3C[C@H](N)C[C@H](N)C3)n2)C1 [N-{4-[2-(3,4-difluoro-phenylcarbamoyl)-acetyl]-phenyl}-4,6-Bis-((3R,5S)-3,5-diamino-piperidin-1-yl)-[1,3,5]triazine-2-amine]	< 16
	Nc1cccc(NC(=O)CC(=O)c2ccc(Nc3nc(N4C[C@H](N)C[C@H](N)C4)nc(N4C[C@H](N)C[C@H](N)C4)n3)cc2)c1 [N-{4-[2-(3-amino-phenylcarbamoyl)-acetyl]-phenyl}-4,6-Bis-((3R,5S)-3,5-diamino-piperidin-1-yl)-[1,3,5]triazine-2-amine]	> 64
< 16	Cl.O=C(CC(=O)c1ccc(Nc2nc(N3CCCCC3)nc(N3CCCCC3)n2)cc1)Nc1cccc(Br)c1 [N-{4-[2-(3-bromo-phenylcarbamoyl)-acetyl]-phenyl}-4,6-Biss-((3R,5S)-3,5-diamino-piperidin-1-yl)-[1,3,5]triazine-2-amine]	
	N[C@@H]1C[C@H](N)CN(c2nc(Nc3ccc(C(=O)CC(=O)Nc4ccc(F)c(Cl)c4)cc3)nc(N3C[C@H](N)C[C@H](N)C3)n2)C1 [N-{4-[2-(3-chloro-4-fluoro-phenylcarbamoyl)-acetyl]-phenyl}-4,6-Bis-((3R,5S)-3,5-diamino-piperidin-1-yl)-[1,3,5]triazine-2-amine]	< 16
